Experimental data from patent US10987359B2, “Oxadiazepinone derivatives and methods of treating hepatitis B infections” (priority 2016, dated 2021).

Each compound was assayed on HBV (assay: HBV replication inhibition assay (BDNA assay) in HepG2.2.15 cells). Conditions: HBV replication assay (BDNA assay), HepG2.2.15 cells; read-out: DNA EC50.
Assay type: cell-based
Description: HBV replication inhibition by the disclosed compounds were determined in cells infected or transfected with HBV or cells with stably integrated HBV, such as HepG2.2.15 cells (Sells et al. 1987). In this example, HepG2.2.15 cells were maintained in cell culture medium containing 10% fetal bovine serum (FBS), Geneticin, L-glutamine, penicillin and streptomycin. HepG2.2.15 cells were seeded in 96-well plates at a density of 40,000 cells/well and were treated with serially diluted compounds at a final DMSO concentration of 0.5% either alone or in combination by adding drugs in a checker box format. Cells were incubated with compounds for three days, after which medium was removed and fresh medium containing compounds was added to cells and incubated for another three days. At day 6, supernatant was removed and treated with DNase at 37° C. for 60 minutes, followed by enzyme inactivation at 75° C. for 15 minutes. Encapsidated HBV DNA was released from the virions and covalently linked HBV polymerase by incubating in lysis buffer (Affymetrix QS0010) containing 2.5 μg proteinase K at 50° C. for 40 minutes. HBV DNA was denatured by addition of 0.2 M NaOH and detected using a branched DNA (BDNA) QuantiGene assay kit according to manufacturer recommendation (Affymetrix). HBV DNA levels were also quantified using qPCR, based on amplification of encapsidated HBV DNA extraction with QuickExtraction Solution (Epicentre Biotechnologies) and amplification of HBV DNA using HBV specific PCR probes that can hybridize to HBV DNA and a fluorescently labeled probe for quantitation. In addition, cell viability of HepG2.2.15 cells incubated with test compounds alone or in combination was determined by using CellTitre-Glo reagent according to the manufacturer protocol (Promega). The mean background signal from wells containing only culture medium was subtracted from all other samples, and percent inhibition at each compound concentration was calculated by normalizing to signals from HepG2.2.15 cells treated with 0.5% DMSO using equation E1. % inhibition=(DMSOave−Xi)/DMSOave×100% E1: […]
where DMSOave is the mean signal calculated from the wells that were treated with DMSO control (0% inhibition control) and Xi is the signal measured from the individual wells. EC50 values, effective concentrations that achieved 50% inhibitory effect, were determined by non-linear fitting using Graphpad Prism software (San Diego, Calif.) and equation E2: Y=Y min+(Y max−Y min)/(1+10(Log EC50−X)×HillSlope) E2: […]
where Y represents percent inhibition values and X represents the logarithm of compound concentrations.
Selected disclosed compounds were assayed in the HBV replication assay (BDNA assay), as described above, and a representative group of these active compounds is shown in Table 7. […] In Table 7, “A” represents 1<EC50≤100; “B” represents 100<EC50≤500; “C” represents 500<EC50≤1000; and “D” represents EC50>1000.
For `CN1OC(CO)Cn2nc3c(c2C1=O)CN(C(=O)Nc1ccc(F)c(C(F)(F)F)c1)CC3` (single isomer, unassigned) [Compound 011_E2, (R*)—N-(4-fluoro-3-(trifluoromethyl)phenyl)-4-(hydroxymethyl)-2-methyl-1-oxo-1,4,5,8,9,11-hexahydropyrido[4′,3′:3,4]pyrazolo[5,1-d][1,2,5]oxadiazepine-10(2H)-carboxamide], the EC50 was 1 to 100 nM.

Same assay, conditions: Hepatitis B virus, HepG2.2.15, HBV replication assay (BDNA assay), HepG2.2.15 cells; read-out: DNA EC50
`C[C@@H]1Cc2nn3c(c2CN1C(=O)Nc1cc(C(F)(F)F)ccc1F)C(=O)N(C)O[C@H](CO)C3` (relative stereo) [Compound 157_D1, (4S*,9R)—N-[2-fluoro-5-(trifluoromethyl)phenyl]-4-(hydroxymethyl)-2,9-dimethyl-1-oxo-5,8,9,11-tetrahydro-4H-pyrido[2,3]pyrazolo[2,4-d][1,2,5]oxadiazepine-10-carboxamide] gave an EC50 of 1 to 100 nM. In the case of `C[C@@H]1Cc2nn3c(c2CN1C(=O)Nc1cc(C(F)(F)F)ccc1F)C(=O)N(C)O[C@@H](CO)C3` (relative stereo) [Compound 157_D2, (4R*,9R)—N-[2-fluoro-5-(trifluoromethyl)phenyl]-4-(hydroxymethyl)-2,9-dimethyl-1-oxo-5,8,9,11-tetrahydro-4H-pyrido[2,3]pyrazolo[2,4-d][1,2,5]oxadiazepine-10-carboxamide], the EC50 is reported as 1 to 100 nM. In the case of `CN1OC(CO)Cn2nc3c(c2C1=O)CN(C(=O)Nc1ccc(F)c(C(F)(F)F)c1)CC3` (single isomer, unassigned) [Compound 011_E1, (S*)—N-(4-fluoro-3-(trifluoromethyl)phenyl)-4-(hydroxymethyl)-2-methyl-1-oxo-1,4,5,8,9,11-hexahydropyrido[4′,3′:3,4]pyrazolo[5,1-d][1,2,5]oxadiazepine-10(2H)-carboxamide], the EC50 is reported as 1 to 100 nM. `CN1OC(CO)Cn2nc3c(c2C1=O)CN(C(=O)Nc1cc(F)c(F)c(Cl)c1)CC3` (single isomer, unassigned) [Compound 028_E1, (S*)—N-(3-chloro-4,5-difluorophenyl)-4-(hydroxymethyl)-2-methyl-1-oxo-1,4,5,8,9,11-hexahydropyrido[4′,3′:3,4]pyrazolo[5,1-d][1,2,5]oxadiazepine-10(2H)-carboxamide] was tested, and the EC50 was 1 to 100 nM. `CN1OC(CO)Cn2nc3c(c2C1=O)CN(C(=O)Nc1ccc(F)c(Cl)c1)CC3` (single isomer, unassigned) [Compound 031_E1, (S*)—N-(3-chloro-4-fluorophenyl)-4-(hydroxymethyl)-2-methyl-1-oxo-1,4,5,8,9,11-hexahydropyrido[4′,3′:3,4]pyrazolo[5,1-d][1,2,5]oxadiazepine-10(2H)-carboxamide] gave an EC50 of 1 to 100 nM. Compound `CN1OC(CO)Cn2nc3c(c2C1=O)CN(C(=O)Nc1ccc(F)c(Br)c1)CC3` (single isomer, unassigned) [Compound 032_E1, (S*)—N-(3-bromo-4-fluorophenyl)-4-(hydroxymethyl)-2-methyl-1-oxo-1,4,5,8,9,11-hexahydropyrido[4′,3′:3,4]pyrazolo[5,1-d][1,2,5]oxadiazepine-10(2H)-carboxamide] has an EC50 of 1 to 100 nM. `CN1OC(CO)Cn2nc3c(c2C1=O)CN(C(=O)Nc1ccnc(Br)c1F)CC3` (single isomer, unassigned) [Compound 033_E1, (S*)—N-(2-bromo-3-fluoropyridin-4-yl)-4-(hydroxymethyl)-2-methyl-1-oxo-1,4,5,8,9,11-hexahydropyrido[4′,3′:3,4]pyrazolo[5,1-d][1,2,5]oxadiazepine-10(2H)-carboxamide] was tested, and the EC50 was 1 to 100 nM. `CN1OC(CO)Cn2nc3c(c2C1=O)CN(C(=O)Nc1ccc(F)c(C#N)c1)CC3` (single isomer, unassigned) [Compound 034_E1, (S*)—N-(3-cyano-4-fluorophenyl)-4-(hydroxymethyl)-2-methyl-1-oxo-1,4,5,8,9,11-hexahydropyrido[4′,3′:3,4]pyrazolo[5,1-d][1,2,5]oxadiazepine-10(2H)-carboxamide] gave an EC50 of 1 to 100 nM. With `Cc1cc(NC(=O)N2CCc3nn4c(c3C2)C(=O)N(C)OC(CO)C4)ccc1F` (single isomer, unassigned) [Compound 035_E1, (S*)—N-(4-fluoro-3-methylphenyl)-4-(hydroxymethyl)-2-methyl-1-oxo-1,4,5,8,9,11-hexahydropyrido[4′,3′:3,4]pyrazolo[5,1-d][1,2,5]oxadiazepine-10(2H)-carboxamide] the EC50 was 1 to 100 nM. Compound `CN1OC(CF)Cn2nc3c(c2C1=O)CN(C(=O)Nc1cccc(Cl)c1)CC3` (single isomer, unassigned) [Compound 037_E1, (S*)—N-(3-chlorophenyl)-4-(fluoromethyl)-2-methyl-1-oxo-1,4,5,8,9,11-hexahydropyrido[4′,3′:3,4]pyrazolo[5,1-d][1,2,5]oxadiazepine-10(2H)-carboxamide] has an EC50 of 1 to 100 nM. `CN1OC(CF)Cn2nc3c(c2C1=O)CN(C(=O)Nc1ccc(F)c(Cl)c1)CC3` (single isomer, unassigned) [Compound 038_E1, (S*)—N-(3-chloro-4-fluorophenyl)-4-(fluoromethyl)-2-methyl-1-oxo-1,4,5,8,9,11-hexahydropyrido[4′,3′:3,4]pyrazolo[5,1-d][1,2,5]oxadiazepine-10(2H)-carboxamide] showed an EC50 of 1 to 100 nM. Compound `CN1OC(CF)Cn2nc3c(c2C1=O)CN(C(=O)Nc1ccc(F)c(C(F)(F)F)c1)CC3` (single isomer, unassigned) [Compound 039_E1, (S*)—N-(4-fluoro-3-(trifluoromethyl)phenyl)-4-(fluoromethyl)-2-methyl-1-oxo-1,4,5,8,9,11-hexahydropyrido[4′,3′:3,4]pyrazolo[5,1-d][1,2,5]oxadiazepine-10(2H)-carboxamide] has an EC50 of 1 to 100 nM. For `CN1OC(CF)Cn2nc3c(c2C1=O)CN(C(=O)Nc1ccc(F)c(Br)c1)CC3` (single isomer, unassigned) [Compound 040_E1, (S*)—N-(3-bromo-4-fluorophenyl)-4-(fluoromethyl)-2-methyl-1-oxo-1,4,5,8,9,11-hexahydropyrido[4′,3′:3,4]pyrazolo[5,1-d][1,2,5]oxadiazepine-10(2H)-carboxamide], the EC50 was 1 to 100 nM. `CN1OC(CF)Cn2nc3c(c2C1=O)CN(C(=O)Nc1ccnc(Br)c1F)CC3` (single isomer, unassigned) [Compound 041_E1, (S*)—N-(2-bromo-3-fluoropyridin-4-yl)-4-(fluoromethyl)-2-methyl-1-oxo-1,4,5,8,9,11-hexahydropyrido[4′,3′:3,4]pyrazolo[5,1-d][1,2,5]oxadiazepine-10(2H)-carboxamide] showed an EC50 of 1 to 100 nM. `CN1OC(CF)Cn2nc3c(c2C1=O)CN(C(=O)Nc1ccc(F)c(C#N)c1)CC3` (single isomer, unassigned) [Compound 042_E1, (S*)—N-(3-cyano-4-fluorophenyl)-4-(fluoromethyl)-2-methyl-1-oxo-1,4,5,8,9,11-hexahydropyrido[4′,3′:3,4]pyrazolo[5,1-d][1,2,5]oxadiazepine-10(2H)-carboxamide] showed an EC50 of 1 to 100 nM. For `Cc1cc(NC(=O)N2CCc3nn4c(c3C2)C(=O)N(C)OC(CF)C4)ccc1F` (single isomer, unassigned) [Compound 043_E1, (S*)—N-(4-fluoro-3-methylphenyl)-4-(fluoromethyl)-2-methyl-1-oxo-1,4,5,8,9,11-hexahydropyrido[4′,3′:3,4]pyrazolo[5,1-d][1,2,5]oxadiazepine-10(2H)-carboxamide], the EC50 was 1 to 100 nM. `CN1OC(CF)Cn2nc3c(c2C1=O)CN(C(=O)Nc1cc(F)c(F)c(Cl)c1)CC3` (single isomer, unassigned) [Compound 044_E1, (S*)—N-(3-chloro-4,5-difluorophenyl)-4-(fluoromethyl)-2-methyl-1-oxo-1,4,5,8,9,11-hexahydropyrido[4′,3′:3,4]pyrazolo[5,1-d][1,2,5]oxadiazepine-10(2H)-carboxamide] was tested, and the EC50 was 1 to 100 nM. `CCN1OC(CO)Cn2nc3c(c2C1=O)CN(C(=O)Nc1ccc(F)c(Cl)c1)CC3` (single isomer, unassigned) [Compound 060_E1, (S*)—N-(3-chloro-4-fluorophenyl)-2-ethyl-4-(hydroxymethyl)-1-oxo-1,4,5,8,9,11-hexahydropyrido[4′,3′:3,4]pyrazolo[5,1-d][1,2,5]oxadiazepine-10(2H)-carboxamide] gave an EC50 of 1 to 100 nM.
